Reference: patent US20080107609A1, “PULMONARY DISEASE TREATMENT” (Schering Corporation, priority 2003, published 2008)

How the values were obtained:
[1] = system: patients suffering from chronic obstructive pulmonary disease; experiment: Example 1: randomized double-blind clinical trial of orally inhaled mometasone furoate vs placebo, FEV1 after salbutamol; type: in vivo, human; conditions: for ΔFEV1: dry powder inhaler, COPD patients previously on inhaled corticosteroid, average change from study start, post-salbutamol
Description: A randomized, double-blind crossover clinical trial was conducted to compare the effects of orally inhaled mometasone furoate and a placebo, in patients suffering from chronic obstructive pulmonary disease. The drug was delivered from a multiple-dose dry powder inhaler charged with a mixture of mometasone furoate and lactose (having a component weight ratio of 1:5.8) in an agglomerated form. Placebo inhaler units contained only the lactose powder. The drug-containing inhalers delivered the following mean amounts of mometasone furoate particles per inhalation, as measured using an Anderson Cascade Impactor (from Thermo Anderson, Smyrna, Ga. U.S.A.) at an air flow rate through the inhaler of 60 L/minute:
Evaluable patients participating in the study numbered 578, all having been diagnosed with COPD of moderate severity, being at least 40 years of age, and also being maintained for at least three months prior to commencement of the study on daily inhalations of a corticosteroid drug (even though there was no regulatory agency-approved COPD therapy using an inhaled corticosteriod). […] The patients were enrolled at a total of 35 sites in 24 countries, and were prescribed two inhalations from the supplied inhaler device each evening for a twelve-month period, with evaluations by a physician after 1, 3, 6, 9, and 12 months of participation. A total of 294 of the patients were randomized to receive inhalers containing the drug, while 284 patients received placebo inhalers. All of the patients were permitted to further use inhaled salbutamol as needed.
Results of the study were as follows, where the ΔFEV1 value represents the average of differences between the patients' FEV1 scores at the beginning of the study and the FEV1 scores at the time of the subsequent measurement, with all of the FEV1 testing being performed after administration of inhaled salbutamol. For each time point, the number of patients remaining in the study is given.
From a statistical analysis of the data, it was determined that the mean change from baseline over the twelve-month period was an increase in ΔFEV1 of 4 mL for patients receiving the mometasone furoate, and a decrease of 36 mL for placebo patients.

[2] = system: patients suffering from chronic obstructive pulmonary disease; experiment: Example 2: randomized double-blind parallel-group clinical trial of orally inhaled mometasone furoate vs placebo, FEV1 after salbutamol; type: in vivo, human; conditions: for ΔFEV1: corticosteroid-naive COPD patients, post-salbutamol; for mean change from baseline in ΔFEV1 over the twelve-month period: statistical analysis, increase
Description: A randomized double-blind, parallel-group clinical trial was conducted to compare the effects of orally inhaled mometasone furoate and a placebo, in patients suffering from chronic obstructive pulmonary disease. The multiple dose dry powder inhaler and placebo inhaler described in the preceding example were used for this study. A total of 769 patients met the criteria for evaluability, from 95 sites in 11 countries. The patients had not previously been treated with corticosteroids, either inhaled or orally dosed, but otherwise met the criteria of the preceding example. In the study, patients were prescribed either two inhalations from the inhaler each evening, or one inhalation each morning and one inhalation each evening, with a twelve-month treatment duration. Results of the study were as follows, where the ΔFEV1 value represents the average of differences between the patients' FEV1 scores at the beginning of the study and the FEV1 scores at the time of the subsequent measurement, with all of the FEV1 testing being performed after administration of inhaled salbutamol. For each time point, the number of patients remaining in the study is given.

Structure (SMILES): C[C@@H]1C[C@H]2[C@@H]3CCC4=CC(=O)C=C[C@]4(C)[C@@]3(Cl)[C@@H](O)C[C@]2(C)[C@@]1(OC(=O)c1ccco1)C(=O)CCl [mometasone furoate, 9α,21-Dichloro-11β,17-dihydroxy-16α-methylpregna-1,4-diene-3,20-dione 17-(2-furoate)]
- ΔFEV1 ([1]; 1 month, two inhalations each evening): 5 mL
- ΔFEV1 ([1]; 3 months, two inhalations each evening): 9 mL
- ΔFEV1 ([1]; 6 months, two inhalations each evening): -2 mL
- ΔFEV1 ([1]; 9 months, two inhalations each evening): 22 mL
- ΔFEV1 ([1]; 12 months, two inhalations each evening): 7 mL
- difference between treatments (drug vs placebo) in mean ΔFEV1 change ([1]; longitudinal analysis of variance model, twelve-month period): statistically significant
- mean change from baseline in ΔFEV1 over the twelve-month period ([1]; statistical analysis (longitudinal analysis of variance), two inhalations each evening, increase): 4 mL
- pulmonary function over the trial period (FIG. 1) ([1]; twelve months, two inhalations each evening): generally maintained or slightly improved their pulmonary function
- ΔFEV1 ([2]; Once Daily (two inhalations each evening), 1 month): 66 mL
- ΔFEV1 ([2]; Once Daily (two inhalations each evening), 3 months): 57 mL
- ΔFEV1 ([2]; Once Daily (two inhalations each evening), 6 months): 44 mL
- ΔFEV1 ([2]; Once Daily (two inhalations each evening), 9 months): 37 mL
- ΔFEV1 ([2]; Once Daily (two inhalations each evening), 12 months): 38 mL
- ΔFEV1 ([2]; Twice Daily (one inhalation each morning and one each evening), 1 month): 72 mL
- ΔFEV1 ([2]; Twice Daily (one inhalation each morning and one each evening), 3 months): 79 mL
- ΔFEV1 ([2]; Twice Daily (one inhalation each morning and one each evening), 6 months): 36 mL
- ΔFEV1 ([2]; Twice Daily (one inhalation each morning and one each evening), 9 months): 58 mL
- ΔFEV1 ([2]; Twice Daily (one inhalation each morning and one each evening), 12 months): 31 mL
- mean change from baseline in ΔFEV1 over the twelve-month period ([2]; dosed once daily): 50 mL
- mean change from baseline in ΔFEV1 over the twelve-month period ([2]; dosed twice daily): 53 mL
- pulmonary function over the trial period (FIG. 2) ([2]; twelve months, once daily and twice daily): generally improved their pulmonary function
- comparison of both mometasone furoate treatments (once and twice daily) with placebo ([2]; twelve-month period, ΔFEV1): statistically significantly superior to the placebo treatment
